Data: ChEMBL document CHEMBL1201862, “PubChem BioAssay data set” (2004)
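Exposure lasted 48 hours, with cells grown in 96-well plates and compounds tested at five concentrations. At the GI50, growth is halved.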 Active and inactive are the calls of the source. Rule as the data show it: active = GI50 up to about 1.1 µM and inactive = higher.

Columns and labels:
Assay in all cases: growth of human tumour cells (NCI), 48 h
[1] = test system: RXF 393
[2] = test system: SF-268
[3] = test system: NCI-H226
[4] = test system: SF-539
[5] = test system: SK-MEL-2
[6] = test system: MOLT-4
[7] = test system: HT-29
[8] = test system: 786-0
[9] = test system: M14
[10] = test system: SNB-19
[11] = test system: T47D
[12] = test system: RPMI-8226
[13] = test system: NCI/ADR-RES
[14] = test system: HCC 2998
[15] = test system: EKVX
[16] = test system: BT-549
[17] = test system: SK-MEL-5
[18] = test system: IGROV-1
[19] = test system: PC-3

Measured: GI50

COc1ccccc1N1C(=O)CSC1c1c[nH]c2ccccc12 (centres undefined)
inactive: [1] > 100 µM | [2] 42.8 µM | [3] > 100 µM | [4] > 100 µM | [5] > 100 µM | [6] > 100 µM | [7] > 100 µM | [8] > 100 µM | [9] > 100 µM | [10] > 100 µM | [11] > 100 µM | [12] > 100 µM | [13] > 100 µM | [14] > 100 µM | [15] > 100 µM | [16] > 100 µM | [17] > 100 µM | [18] > 100 µM

Cc1ccc(NC2=CC(=O)C(NO)c3ccccc32)cc1 (centres undefined)
inactive: [1] 2.62 µM | [2] 3.32 µM | [3] 19.9 µM | [4] 3.01 µM | [5] 2.23 µM | [6] 2.74 µM | [7] 4.35 µM | [8] 5.16 µM | [9] 2.94 µM | [10] 3.18 µM | [11] 2.74 µM | [13] 2.08 µM | [14] 7.26 µM | [15] 2.15 µM | [16] 3.66 µM | [17] 1.49 µM | [18] 1.53 µM

CCN(CC)P1(=S)Oc2ccc3ccccc3c2-c2c(ccc3ccccc23)O1
inactive: [19] > 100 µM | [3] > 100 µM | [4] > 100 µM | [5] > 100 µM | [6] > 100 µM | [7] 18.5 µM | [8] > 100 µM | [9] > 100 µM | [10] > 100 µM | [11] 22.5 µM | [12] > 100 µM | [13] > 100 µM | [14] 77.4 µM | [15] > 100 µM | [16] > 100 µM | [17] > 100 µM | [18] 89.3 µM

COc1cc(S(=O)(=O)Nc2ccc(-c3csc(/N=C\c4cccs4)n3)cc2)ccc1Cl
inactive: [19] > 100 µM | [2] 33.7 µM | [3] 57.4 µM | [4] 39.7 µM | [5] 96.6 µM | [7] 57.1 µM | [8] 59.3 µM | [9] 61.8 µM | [10] 32.6 µM | [11] 19.2 µM | [12] 29 µM | [13] > 100 µM | [14] 29.4 µM | [15] 28.1 µM | [16] 31.1 µM | [17] 42.3 µM | [18] 69.7 µM

Clc1ccc(CN2CCCN(Cc3ccc(Cl)cc3)C2c2cc3ccccc3c3ccccc23)cc1
inactive: [19] 24.3 µM | [1] 24.8 µM | [2] 44.3 µM | [3] > 100 µM | [4] 62.2 µM | [5] 25.5 µM | [6] 5.85 µM | [7] 36.8 µM | [8] 75 µM | [9] 18.7 µM | [10] > 100 µM | [11] 32.4 µM | [12] 45.1 µM | [13] 65.8 µM | [15] 39.1 µM | [16] 38.3 µM | [17] 17.8 µM | [18] > 100 µM

COc1ccc(-c2oc3c(OC)c(OC)c(OC)c(OC)c3c(=O)c2OC)cc1OC [3,5,6,7,8,3',4'-HEPTAMETHOXYFLAVONE]
inactive: [19] 26.6 µM | [2] 5.45 µM | [3] 48.9 µM | [4] 65.8 µM | [5] 29.6 µM | [6] 22.4 µM | [7] 26.5 µM | [8] 24.5 µM | [9] 41.4 µM | [10] > 100 µM | [11] 22.4 µM | [12] 12.4 µM | [13] 20.3 µM | [14] 63.8 µM | [15] 55.7 µM | [16] 50.7 µM | [17] 19.3 µM | [18] 30.3 µM

CCOC(=O)C12C(=O)CCN1CCc1ccccc1C2C (centres undefined)
inactive: [19] > 100 µM | [1] > 100 µM | [2] > 100 µM | [3] > 100 µM | [4] > 100 µM | [5] > 100 µM | [6] > 100 µM | [7] > 100 µM | [8] > 100 µM | [9] > 100 µM | [10] > 100 µM | [11] > 100 µM | [12] > 100 µM | [13] > 100 µM | [15] > 100 µM | [16] > 100 µM | [17] > 100 µM | [18] > 100 µM

C=CCC(SC)C1=C(C)C(=O)c2ccccc21 (centres undefined)
inactive: [19] > 10 µM | [1] > 10 µM | [2] > 10 µM | [3] > 10 µM | [4] > 10 µM | [5] > 10 µM | [6] > 10 µM | [7] > 10 µM | [8] > 10 µM | [9] > 10 µM | [10] > 10 µM | [11] > 10 µM | [12] > 10 µM | [14] > 10 µM | [15] > 10 µM | [16] > 10 µM | [17] > 10 µM | [18] > 10 µM

COC(=O)[C@H]1NC(=O)CCSSC1(C)C
inactive: [19] > 100 µM | [1] > 100 µM | [2] > 100 µM | [3] > 100 µM | [4] > 100 µM | [5] > 100 µM | [6] > 100 µM | [7] > 100 µM | [8] > 100 µM | [9] > 100 µM | [10] > 100 µM | [11] > 100 µM | [12] > 100 µM | [13] > 100 µM | [15] > 100 µM | [16] > 100 µM | [17] > 100 µM | [18] > 100 µM

O=C(Nc1ccccc1)c1cc2ccccc2c(/N=N/c2ccc([N+](=O)[O-])cc2)c1O
inactive: [19] > 100 µM | [1] 82.4 µM | [2] > 100 µM | [3] > 100 µM | [5] 32.8 µM | [6] 17 µM | [7] > 100 µM | [8] 86.3 µM | [9] > 100 µM | [10] 59.6 µM | [11] > 100 µM | [12] 25.5 µM | [13] > 100 µM | [15] > 100 µM | [16] 44.3 µM | [17] > 100 µM | [18] > 100 µM

CC(C)CC(NP(=O)(O)OC1OC(C)C(O)C(O)C1O)C(=O)NC(Cc1c[nH]c2ccccc12)C(=O)O (centres undefined)
inactive: [19] > 100 µM | [2] > 100 µM | [3] > 100 µM | [4] > 100 µM | [6] > 100 µM | [7] > 100 µM | [8] > 100 µM | [9] > 100 µM | [10] > 100 µM | [11] > 100 µM | [12] > 100 µM | [13] > 100 µM | [14] > 100 µM | [15] > 100 µM | [16] > 100 µM | [17] > 100 µM | [18] > 100 µM

Cc1nc2sc3ccccc3n2c(=O)c1/N=N/c1ccc(Br)cc1
inactive: [19] 51.5 µM | [1] > 100 µM | [2] 70.5 µM | [3] 44.8 µM | [4] > 100 µM | [5] 81.5 µM | [6] 55.8 µM | [7] > 100 µM | [8] > 100 µM | [9] > 100 µM | [10] > 100 µM | [11] 90.8 µM | [12] 71.3 µM | [13] > 100 µM | [15] 57.1 µM | [16] > 100 µM | [17] > 100 µM | [18] > 100 µM

c1ccc(/N=C(\N2CCCC2)N(CCN2CCCC2)c2ccccc2)cc1
inactive: [19] 5.5 µM | [2] > 10 µM | [3] 23.7 µM | [5] 64.9 µM | [6] 3.98 µM | [7] 1.84 µM | [8] 43.2 µM | [9] 8.34 µM | [10] > 100 µM | [11] 28.8 µM | [12] 47.8 µM | [13] 37 µM | [15] 73.3 µM | [16] 15.6 µM | [17] 12.2 µM | [18] 24.9 µM

CC(=O)NN/C=N/C(C#N)=C(\N)C#N
inactive: [19] > 100 µM | [2] > 100 µM | [3] > 100 µM | [4] > 100 µM | [5] > 100 µM | [6] > 100 µM | [7] > 100 µM | [8] > 100 µM | [9] > 100 µM | [10] > 100 µM | [11] > 100 µM | [12] > 100 µM | [13] > 100 µM | [14] > 100 µM | [15] > 100 µM | [16] > 100 µM | [17] > 100 µM | [18] > 100 µM

COc1cccc(C23CCCC(C2)N(C)CC3OC(=O)c2ccccc2)c1OC (centres undefined)
inactive: [19] 23.8 µM | [2] 32 µM | [4] 52.5 µM | [5] 31.8 µM | [6] 18.4 µM | [7] 13.2 µM | [8] 32.7 µM | [9] 15.9 µM | [10] 35.6 µM | [11] 20.3 µM | [12] 18.6 µM | [13] 20.7 µM | [14] 22.9 µM | [15] 24.5 µM | [16] 14.5 µM | [17] 14 µM | [18] 15.6 µM

COc1ccc2c3c1OC1c4[nH]c5ccccc5c4CC4(O)C(C2)N(C)CCC314 (centres undefined)
inactive: [19] 37.2 µM | [1] 20 µM | [2] 36.6 µM | [5] 18.4 µM | [6] 16.7 µM | [7] 22 µM | [8] 18.7 µM | [9] 17.1 µM | [10] 32.4 µM | [11] 20.8 µM | [12] 19.3 µM | [13] 63.4 µM | [14] 16.4 µM | [15] 51.9 µM | [16] 30.8 µM | [17] 15.2 µM | [18] 64.1 µM
